From patent US9107415B2, “2-(substituted-phenyl)-cyclopentane-1,3-dione compounds, and derivatives thereof” (Syngenta Limited, priority 2011, dated 2015)

Assays:
Assay type in all cases: in vivo
[1] = test system: Echinochloa crus-galli (ECHCG); test: Biological Example 1 glasshouse screen, post-emergence herbicidal activity; conditions: 312 h, application rate 250 g/ha, evaluated after 13 days, read-out: ECHCG percentage phytotoxicity
Protocol: (§1) Seeds of a variety of test species were sown in standard soil in pots. After cultivation for one day (pre-emergence) or after 8 days cultivation (post-emergence) under controlled conditions in a glasshouse (at 24/16°C., day/night; 14 hours light; 65% humidity), the plants were sprayed with an aqueous spray solution derived from the formulation of the “technical”(i.e. unformulated) active ingredient in acetone/water (50:50) solution containing 0.5% Tween 20 (polyoxyethylene sorbitan monolaurate, CAS Registry Number 9005-64-5). The test plants were then grown in a glasshouse under controlled conditions in a glasshouse (at 24/16°C., day/night; 14 hours light; 65% humidity) and watered twice daily. After 13 days for pre- or post-emergence, the test was evaluated visually, and an assessed percentage phytotoxicity score given for each herbicidal application on each plant/weed species (with 100%=total damage to plant; 0%=no damage to plant).
(§2) Test plants: Alopecurus myosuroides (ALOMY), Setaria faberi (SETFA), Echinochloa crus-galli (ECHCG), Solanum nigrum (SOLNI), Amaranthus retroflexus (AMARE) and Ipomoea hederacea (IPOHE). ALOMY, SETFA and ECHCG are grassy monocotyledonous weeds. SOLNI, AMARE and IPOHE are dicotyledonous (broadleaved) weeds.
(§3) Test plants: Lolium perenne (LOLPE), Alopecurus myosuroides (ALOMY), Echinochloa crus-galli (ECHCG), and Avena fatua (AVEFA). All four of these are grassy monocotyledonous weeds.

[2] = test system: Alopecurus myosuroides (ALOMY); test: as above; conditions: 312 h, application rate 250 g/ha, evaluated after 13 days, read-out: ALOMY percentage phytotoxicity
Protocol: as §1, §2, §3

Lolium perenne (LOLPE) [3] = test: as above; conditions: 312 h, application rate 250 g/ha, evaluated after 13 days, read-out: LOLPE percentage phytotoxicity
Protocol: as §1, §3

Avena fatua (AVEFA) [4] = test: as above; conditions: 312 h, application rate 250 g/ha, evaluated after 13 days, read-out: AVEFA percentage phytotoxicity
Protocol: as §1, §3

[5] = test system: Lolium perenne, perennial ryegrass (LOLPE); test: Biological Example 3 glasshouse screen, post-emergence herbicidal activity; conditions: 360 h, 15 DAA, no safener, read-out: LOLPE percentage phytotoxicity
Protocol: (§4) Test Method: Seeds of a variety of test species are sown in standard soil in pots. After cultivation for one day (pre-emergence) or after 12 days cultivation (post-emergence) under controlled conditions in a glasshouse (warm climate species at 24/18°C., cool climate species at 20/16°C., both at day/night; 16 hours light; 65% humidity), the plants are sprayed with an aqueous spray solution derived from the formulation of the “technical”(i.e. unformulated) active ingredient dissolved in acetone plus IF50, at a 1:20 ratio of “technical”active ingredient to IF50. The IF50 contains about 10.56 weight % Emulsogen EL™(castor oil ethoxylate, CAS Registry number 61791-12-6), about 42.22 weight % N-methylpyrrolidone, and about 42.22 weight % DPG-Monoethyl ether (dipropylene glycol mono-ethyl ether). The adjuvant X-77 (a mixture of alkyl aryl polyoxyethylene glycols and free fatty acids in isopropanol, CAS Registry number 11097-66-8) is added to the aqueous spray solution to form a 0.2% v/v solution, before spraying onto the plants.
(§5) The test plants are then grown in a glasshouse under controlled conditions in a glasshouse (at 24/18°C. or 20/16°C., day/night; 16 hours light; 65% humidity) and watered twice daily. After 15 days after application of the herbicide (15 DAA) (for post-emergence), and after 20 DAA (for pre-emergence), the test is evaluated visually, and an assessed percentage phytotoxicity score is given for each herbicidal application on each plant/weed species (with 100%=total damage to plant; 0%=no damage to plant). […]

[6] = test system: Alopecurus myosuroides, blackgrass (ALOMY); test: as above; conditions: 360 h, 15 DAA, no safener, read-out: ALOMY percentage phytotoxicity
Protocol: as §4, §5

[7] = test system: Echinochloa crus galli, barnyardgrass (ECHCG); test: as above; conditions: 360 h, 15 DAA, no safener, read-out: ECHCG percentage phytotoxicity
Protocol: as §4, §5

[8] = test system: Avena fatua, wild oats (AVEFA); test: as above; conditions: 360 h, 15 DAA, no safener, read-out: AVEFA percentage phytotoxicity
Protocol: as §4, §5

[9] = test system: Triticum aestivum, wheat (TRZAW); test: Biological Example 3 glasshouse screen, post-emergence, phytotoxicity on wheat; conditions: 360 h, 15 DAA, no safener, read-out: TRZAW percentage phytotoxicity
Protocol: as §4
The test plants are then grown in a glasshouse under controlled conditions in a glasshouse (at 24/18°C. or 20/16°C., day/night; 16 hours light; 65% humidity) and watered twice daily. After 15 days after application of the herbicide (15 DAA) (for post-emergence), and after 20 DAA (for pre-emergence), the test is evaluated visually, and an assessed percentage phytotoxicity score is given for each herbicidal application on each plant/weed species (with 100%=total damage to plant; 0%=no damage to plant).
These give an approximate indication of the level of selectivity on wheat for these tested compounds, when a herbicide safener such as cloquintocet-mexyl is not used: […]

Lolium perenne (LOLPE) [10] = test: Biological Example 1 glasshouse screen, pre-emergence herbicidal activity; conditions: 312 h, application rate 250 g/ha, evaluated after 13 days, read-out: LOLPE percentage phytotoxicity
Protocol: as §1, §3

Avena fatua (AVEFA) [11] = test: as above; conditions: 312 h, application rate 250 g/ha, evaluated after 13 days, read-out: AVEFA percentage phytotoxicity
Protocol: as §1, §3

[12] = test system: Echinochloa crus-galli (ECHCG); test: as above; conditions: 312 h, application rate 250 g/ha, evaluated after 13 days, read-out: ECHCG percentage phytotoxicity
Protocol: as §1, §2, §3

[13] = test system: Alopecurus myosuroides (ALOMY); test: as above; conditions: 312 h, application rate 250 g/ha, evaluated after 13 days, read-out: ALOMY percentage phytotoxicity
Protocol: as §1, §2, §3

SMILES | pest or weed control at 250 g/ha [1] [%] | pest or weed control at 250 g/ha [2] [%] | pest or weed control at 250 g/ha (Lolium perenne (LOLPE) [3]) [%] | pest or weed control at 250 g/ha (Avena fatua (AVEFA) [4]) [%] | pest or weed control at 30 g/ha ([5]; application rate 30 g/ha) [%] | pest or weed control at 60 g/ha ([5]; application rate 60 g/ha) [%] | pest or weed control at 30 g/ha ([6]; application rate 30 g/ha) [%] | pest or weed control at 60 g/ha ([6]; application rate 60 g/ha) [%] | pest or weed control at 30 g/ha ([7]; application rate 30 g/ha) [%] | pest or weed control at 60 g/ha ([7]; application rate 60 g/ha) [%] | pest or weed control at 30 g/ha ([8]; application rate 30 g/ha) [%] | pest or weed control at 60 g/ha ([8]; application rate 60 g/ha) [%] | pest or weed control at 30 g/ha ([9]; application rate 30 g/ha) [%] | pest or weed control at 60 g/ha ([9]; application rate 60 g/ha) [%] | pest or weed control at 250 g/ha (Lolium perenne (LOLPE) [10]) [%] | pest or weed control at 250 g/ha (Avena fatua (AVEFA) [11]) [%] | pest or weed control at 250 g/ha [12] [%] | pest or weed control at 250 g/ha [13] [%]
CC#Cc1cc(C)c(C2=C(O)CC(Cc3cccc(F)n3)C2=O)c(C)c1 (centres unmarked) [Compound A-7] | 100 | 100 | 100 | 90 | 80 | 90 | 70 | 80 | 80 | 100 | 40 | 50 | 40 | 50 | – | – | – | –
CC#Cc1cc(C)c(C2=C(O)CC(Cc3cccc(C#N)n3)C2=O)c(C)c1 (centres unmarked) [Compound A-12] | 100 | 90 | 90 | 100 | – | – | – | – | – | – | – | – | – | – | 90 | 80 | 100 | 90
CC#Cc1cc(C)c(C2=C(O)CC(Cc3ccc(C(C)=O)cn3)C2=O)c(C)c1 (centres unmarked) [Compound A-13] | 100 | 70 | 80 | 80 | – | – | – | – | – | – | – | – | – | – | 80 | 80 | 100 | 80
C#CCC1CC(=O)C(c2c(C)cc(C#CC)cc2C)C1=O (centres unmarked) [Compound A-20] | 100 | 100 | 100 | 90 | – | – | – | – | – | – | – | – | – | – | 100 | 90 | 100 | 100
CC#CCC1CC(=O)C(c2c(C)cc(C#CC)cc2C)C1=O (centres unmarked) [Compound A-21] | 100 | 100 | 100 | 80 | – | – | – | – | – | – | – | – | – | – | 100 | 60 | 100 | 100
CC#Cc1cc(C)c(C2C(=O)CC(CC#CCl)C2=O)c(C)c1 (centres unmarked) [Compound A-22] | 100 | 60 | 80 | 0 | – | – | – | – | – | – | – | – | – | – | 90 | 80 | 100 | 90
CC#Cc1cc(C)c(C2C(=O)CC(Cc3ccc(C#N)c(NC)n3)C2=O)c(C)c1 (centres unmarked) [Compound A-23, 6-[[3-(2,6-dimethyl-4-prop-1-ynyl-phenyl)-2,4-dioxo-cyclopentyl]methyl]-2-(methylamino)pyridine-3-carbonitrile] | 100 | 100 | 90 | 90 | – | – | – | – | – | – | – | – | – | – | 80 | 80 | 100 | 80
